By EC50 is commonly meant the concentration at which the effect is half-maximal.

The values below come from publication PMC10162847 (Phytomedicine, 2023).

Like-named read-outs stand apart in the source and are kept apart here.

One data set deals with HCoV-229E. In words: microbe, parasite or virus in culture. In kind it is cell-based. Particulars: Human coronavirus 229E.
For data set [1], the system named is SARS-CoV-2 pseudo typed lentivirus. Format: cell-based. As to conditions: fluorescence signal, 0-300 μM, pre-incubation 0.5 h.
The conditions of data set [2]: KM mice, oral 6000 mg/kg (2000 mg/kg 3 times within 24 h), 7 days observation.
The next data set relates to Vero E6 cells. As to conditions: MTT, 72 h.
For data set [3], the system named is dimethylbenzene-induced auricular edema.
Data set [4] deals with carrageenan-induced paw edema. The data set is described as follows: Carrageenan-induced paw edema in rats. Particulars: oral 50, 100, 200 mg/kg for 7 days, 2nd-5th h after carrageenan injection. Format: in vivo, Sprague-Dawley (SD) rats. A general note: Carrageenan injected into the paw causes an acute inflammation.
The target of data set [5] is interactions between the RBD^WT and ACE2 protein (Severe acute respiratory syndrome coronavirus 2, UniProt P0DTC2). Format: binding. As to conditions: ELISA. A general note: In an ELISA, binding on a coated surface is turned into a signal by an enzyme label.
The test system of a further data set is DNFB-induced ear edema. As to conditions: DTH model.
The test system of data set [6] is RIPK1/NF-κB pathway in THP1 macrophages. Format: cell-based.
Data set [7] concerns LPS-induced acute lung injury. Format: in vivo, C57BL/6 mice. Particulars: ALI mice.
The nature of a further data set: in vitro. As to conditions: human.
The subject of another data set is SARS-CoV-2. Format: cell-based. Particulars: VeroE6 cells, concentration-dependent.
[8] abbreviates: Huh-7, read-out: EC50, HCoV-229E replication, CPE assay.
Where [9] appears, read: Huh-7, read-out: EC50, HCoV-229E replication, MTT assay.
[10] abbreviates: western blotting, THP1 macrophages.
[11] abbreviates: oral pre-treatment 200, 300, 400 mg/kg.

Turning to `O=c1c(O)c(-c2cc(O)c(O)c(O)c2)oc2cc(O)cc(O)c12` [myricetin, 3,5,7-trihydroxy-2-(3,4,5-tri hydroxyphenyl)-4-benzopyrone], in the data set with HCoV-229E (setting [8]), the EC50 was 53.5 µM. Moreover, in the data set on HCoV-229E (setting [9]), the EC50 came to 61.5 µM. Also, the “binding of the SARS-CoV-2 pseudo typed lentivirus to HEK293-hACE2-mCherry cells” value in [1] is “repressed”. In addition, the “acute toxicity, exposure-related clinical symptoms” value in data set [2] is listed as “no exposure-related clinical signs”. This compound also displayed a CC50 with Vero E6 cells of 248 µM. Besides, the immune organ toxicity entry in data set [3] (dimethylbenzene-induced auricular edema model) is given as “without immune organ toxicity”. Besides, the “edema formation in the dermis” value in [3] (dimethylbenzene-induced auricular edema, 7 days pre-treatment) is reported as “significantly suppressed”. In addition, in [4], the “inflammatory activity (paw edema)” value was “significantly reduce”. Also, in data set [5], the “interactions between the RBD^WT and ACE2 protein” value is “significantly inhibited”. The organ damage result with DNFB-induced ear edema (BALB/c mice) was “without any organ damage”. Also, the mouse ear thickness entry in the data set on DNFB-induced ear edema (oral 50, 100, 200 mg/kg, 20, 40, 60 and 80 min after modeling) is listed as “decreased”. Besides, in data set [6] (LPS-induced THP1 macrophages, 100, 200, 400 μM), the “RIPK1 expression levels and mRNA levels of NF-κBp65, RIPK3, RIPK1, MLKL, FADD, Caspase8 and JNK” value is “significantly reduced”. Also, in data set [6] (setting [10]), the “RIPK1, phosphorylation of NF-κBp65 and RIPK1 induced by LPS stimulation” value is given as “significantly inhibited”; the “abundance of the NF-κBp65 protein among the total proteins” value is given as “unaltered”. Besides, in data set [7], the “mRNA levels of TNFα, IL-6 and NF-κBp65 in the lung tissues” value is recorded as “significantly downregulated”. In addition, in data set [7] (setting [11]), the alveolar inflammation result is “decreased the alveolar inflammation” and the lung edema result is “alleviated lung edema”.
For the compound `CCC(CC)COC(=O)[C@H](C)N[P@](=O)(OC[C@H]1O[C@@](C#N)(c2ccc3c(N)ncnn23)[C@H](O)[C@@H]1O)Oc1ccccc1` [remdesivir, reference compound], the figures for the EC50 with HCoV-229E (setting [8]) and with HCoV-229E (setting [9]) were 0.0562 µM and 0.0583 µM, respectively. Besides, the CC50 in “in vitro” came out at 108 µM. In addition, in the data set on SARS-CoV-2, the SARS-CoV-2 proliferation entry is recorded as “inhibited”.
